Strand notation (5' to 3'): a small letter for the sugar, then the base; units joined by * are phosphorothioate-linked, units joined directly phosphodiester-linked; [ ] holds rarer units or linkages, { } end groups; capitals alone tell only the bases. e = 2'-O-(2-methoxyethyl) (MOE); [5mC] = 5-methylcytosine; d = 2'-deoxy (DNA)

One data set deals with human PKK mRNA. The experiment in a line: Antisense inhibition of human PKK mRNA in HepaRG cells, 5,000 nM (Example 2). In kind it is cell-based. The note with it: HepaRG cells, 5,000 nM antisense oligonucleotide, human PKK mRNA; Table 18. An outline of the steps:
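Chimeric MOE gapmers with full phosphorothioate backbones were tested once at 5,000 nM in electroporated HepaRG cells. After about 24 hours, quantitative PCR measured PKK mRNA relative to untreated control cells.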
As a reminder, the % inhibition is the relative decrease from the control value, in per cent. Read a high % inhibition as strong suppression. On to “548706 (DNA e[5mC]*eT*eA*dG*dT*dT*dT*d[5mC]*d[5mC]*dT*dA*dT*dA*eA*e[5mC]*eT; antisense) [compound 548706]”, for which the “% inhibition” value came out at 0%.
Turning to “548707 (DNA eA*e[5mC]*eT*dA*dG*dT*dT*dT*d[5mC]*d[5mC]*dT*dA*dT*eA*eA*e[5mC]; antisense) [compound 548707]”, the “% inhibition” value was 10%.
As to “548708 (DNA eT*eA*e[5mC]*dT*dA*dG*dT*dT*dT*d[5mC]*d[5mC]*dT*dA*eT*eA*eA; antisense) [compound 548708]”, the “% inhibition” value was found to be 0%.
Still for that read-out and setting: in the case of “548709 (DNA eG*eT*eA*d[5mC]*dT*dA*dG*dT*dT*dT*d[5mC]*d[5mC]*dT*eA*eT*eA; antisense) [compound 548709]” it was 0%; in that of “548710 (DNA eT*eG*eT*dA*d[5mC]*dT*dA*dG*dT*dT*dT*d[5mC]*d[5mC]*eT*eA*eT; antisense) [compound 548710]”, 0%; in that of “548711 (DNA e[5mC]*eT*eG*dT*dA*d[5mC]*dT*dA*dG*dT*dT*dT*d[5mC]*e[5mC]*eT*eA; antisense) [compound 548711]”, 21%.
The same measure, in the same setting: in the case of “548712 (DNA eA*e[5mC]*eT*dG*dT*dA*d[5mC]*dT*dA*dG*dT*dT*dT*e[5mC]*e[5mC]*eT; antisense) [compound 548712]” it was 9%; in that of “548713 (DNA e[5mC]*eA*e[5mC]*dT*dG*dT*dA*d[5mC]*dT*dA*dG*dT*dT*eT*e[5mC]*e[5mC]; antisense) [compound 548713]”, 33%; in that of “548714 (DNA eT*e[5mC]*eA*d[5mC]*dT*dG*dT*dA*d[5mC]*dT*dA*dG*dT*eT*eT*e[5mC]; antisense) [compound 548714]”, 15%.
Consider “548715 (DNA eA*eT*e[5mC]*dA*d[5mC]*dT*dG*dT*dA*d[5mC]*dT*dA*dG*eT*eT*eT; antisense) [compound 548715]”, for which the “% inhibition” value is reported as 0%.
In the case of “548716 (DNA eT*eA*eT*d[5mC]*dA*d[5mC]*dT*dG*dT*dA*d[5mC]*dT*dA*eG*eT*eT; antisense) [compound 548716]”, the “% inhibition” value is 10%.
Turning to “548717 (DNA eA*e[5mC]*eT*dA*dG*dT*dT*dT*d[5mC]*d[5mC]*dT*dA*dT*eA*eA*e[5mC]*eT; antisense) [compound 548717]”, the “% inhibition” value stood at 0%.
Take “548718 (DNA eT*eA*e[5mC]*dT*dA*dG*dT*dT*dT*d[5mC]*d[5mC]*dT*dA*eT*eA*eA*e[5mC]; antisense) [compound 548718]”: the “% inhibition” value amounted to 0%.
For “548719 (DNA eG*eT*eA*d[5mC]*dT*dA*dG*dT*dT*dT*d[5mC]*d[5mC]*dT*eA*eT*eA*eA; antisense) [compound 548719]”, the “% inhibition” value came to 0%.
Take “548720 (DNA eT*eG*eT*dA*d[5mC]*dT*dA*dG*dT*dT*dT*d[5mC]*d[5mC]*eT*eA*eT*eA; antisense) [compound 548720]”: the “% inhibition” value was 0%.
In the case of “548721 (DNA e[5mC]*eT*eG*dT*dA*d[5mC]*dT*dA*dG*dT*dT*dT*d[5mC]*e[5mC]*eT*eA*eT; antisense) [compound 548721]”, the “% inhibition” value is given as 27%.
As to “548722 (DNA eA*e[5mC]*eT*dG*dT*dA*d[5mC]*dT*dA*dG*dT*dT*dT*e[5mC]*e[5mC]*eT*eA; antisense) [compound 548722]”, the “% inhibition” value was 26%.
For the substance “548723 (DNA e[5mC]*eA*e[5mC]*dT*dG*dT*dA*d[5mC]*dT*dA*dG*dT*dT*eT*e[5mC]*e[5mC]*eT; antisense) [compound 548723]”, the “% inhibition” value came out at 62%.
Regarding “548724 (DNA eT*e[5mC]*eA*d[5mC]*dT*dG*dT*dA*d[5mC]*dT*dA*dG*dT*eT*eT*e[5mC]*e[5mC]; antisense) [compound 548724]”, the “% inhibition” value is reported as 61%.
For “548725 (DNA eA*eT*e[5mC]*dA*d[5mC]*dT*dG*dT*dA*d[5mC]*dT*dA*dG*eT*eT*eT*e[5mC]; antisense) [compound 548725]”, the “% inhibition” value is listed as 32%.
As to “548728 (DNA eT*eA*e[5mC]*eT*dA*dG*dT*dT*dT*d[5mC]*d[5mC]*dT*dA*dT*eA*eA*e[5mC]; antisense) [compound 548728]”, the “% inhibition” value turned out to be 0%.

The data set is the same for the next values; noted with them: HepaRG cells, 5,000 nM antisense oligonucleotide; 5-10-5 gapmers; Table 17.
As to “547740 (eA*eG*eG*eT*eG*dG*dT*dG*dG*dG*dA*dT*dT*dG*dG*eT*eG*eG*eT*eG; antisense) [compound 547740]”, the “% inhibition” value is on record as 30%.
As to “547741 (eT*eA*eG*eG*eT*dG*dG*dT*dG*dG*dG*dA*dT*dT*dG*eG*eT*eG*eG*eT; antisense) [compound 547741]”, the “% inhibition” value was 47%.
Take “547742 (eA*eT*e[5mC]*eG*eG*dT*dG*dG*dT*dG*dG*dG*dA*dT*dT*eG*eG*eT*e[5mC]*eG; antisense) [compound 547742]”: the “% inhibition” value came to 57%.
The same measure, in the same setting: next, “547743 (eG*eG*eT*eG*eG*dT*dG*dG*dG*dA*dT*dT*dG*dG*dT*eG*eG*e[5mC]*eG*eG; antisense) [compound 547743]”: 61%; “547744 (eT*eG*eG*eT*eG*dG*dT*dG*dG*dG*dA*dT*dT*dG*dG*eT*eG*eG*e[5mC]*eG; antisense) [compound 547744]”: 65%; “547745 (eT*eT*eG*eG*eT*dG*dG*dT*dG*dG*dG*dA*dT*dT*dG*eG*eT*eG*eG*e[5mC]; antisense) [compound 547745]”: 55%.
On the same count and under the same terms, in the case of “547746 (eG*eT*eT*eG*eG*dT*dG*dG*d[5mC]*dG*dG*dG*dA*dT*d[5mC]*eG*eG*eT*eG*eG; antisense) [compound 547746]” it was 0%.
For the substance “547748 (eG*eG*eT*eT*eG*dG*dT*dG*dG*d[5mC]*dG*dG*dG*dA*dT*e[5mC]*eG*eG*eT*eG; antisense) [compound 547748]”, the “% inhibition” value turned out to be 78%.
For “547750 (eT*eG*eG*eT*eT*dG*dG*dT*dG*dG*d[5mC]*dG*dG*dG*dA*eT*e[5mC]*eG*eG*eT; antisense) [compound 547750]”, the “% inhibition” value was 41%.
For “547752 (eG*eT*eG*eG*eT*dT*dG*dG*dT*dG*dG*d[5mC]*dG*dG*dG*eA*eT*e[5mC]*eG*eG; antisense) [compound 547752]”, the “% inhibition” value was 41%.
On to “547754 (eG*eG*eG*eA*eT*dT*dG*dG*dT*dG*dG*dT*dT*dG*dG*eT*eG*eG*e[5mC]*eG; antisense) [compound 547754]”, for which the “% inhibition” value is recorded as 47%.
In the case of “547756 (antisense eG*eG*eG*eT*e[5mC]*dT*dT*dG*d[5mC]*dT*d[5mC]*d[5mC]*dA*d[5mC]*d[5mC]*e[5mC]*eA*e[5mC]*eA*eT) [compound 547756]”, the “% inhibition” value is reported as 49%.
On the same count and under the same terms, in the case of “547758 (antisense e[5mC]*e[5mC]*eA*eA*eG*dT*dA*dG*dT*dG*d[5mC]*dA*dA*dG*dG*e[5mC]*eA*eT*eG*eT) [compound 547758]” it was 24%; in that of “547760 (antisense eA*eT*e[5mC]*eA*eT*dG*d[5mC]*dT*dT*dA*d[5mC]*dT*dG*d[5mC]*dA*eA*eG*eT*eG*eA) [compound 547760]”, 19%.
Consider “547762 (antisense eT*eG*eA*eA*eA*d[5mC]*dT*dG*dG*dG*d[5mC]*dA*dG*dT*d[5mC]*e[5mC]*eT*eT*e[5mC]*e[5mC]) [compound 547762]”, for which the “% inhibition” value was 0%.
In the case of “547764 (antisense e[5mC]*e[5mC]*eA*e[5mC]*e[5mC]*dT*dT*d[5mC]*dT*dT*dA*d[5mC]*dA*dT*dA*eT*eG*e[5mC]*eT*eA) [compound 547764]”, the “% inhibition” value turned out to be 24%.
In the case of “547766 (antisense eG*e[5mC]*e[5mC]*eT*e[5mC]*dT*d[5mC]*dA*dG*dA*d[5mC]*dG*dG*d[5mC]*dA*e[5mC]*eA*eG*eA*e[5mC]) [compound 547766]”, the “% inhibition” value turned out to be 0%.
On to “547768 (antisense eT*eT*eG*e[5mC]*e[5mC]*d[5mC]*dT*d[5mC]*dA*d[5mC]*dA*d[5mC]*dA*dT*dT*e[5mC]*eG*eA*eA*eT) [compound 547768]”, for which the “% inhibition” value stood at 0%.
In the case of “547770 (antisense eT*eG*e[5mC]*eT*eT*dT*d[5mC]*dT*dG*d[5mC]*d[5mC]*d[5mC]*dA*dA*d[5mC]*e[5mC]*eT*e[5mC]*eT*eA) [compound 547770]”, the “% inhibition” value amounted to 48%.
As for “547772 (antisense e[5mC]*eT*eG*eT*eG*d[5mC]*dT*d[5mC]*d[5mC]*d[5mC]*dG*dG*d[5mC]*d[5mC]*dA*eT*eT*eA*eG*e[5mC]) [compound 547772]”, the “% inhibition” value is given as 0%.
In the case of “547774 (antisense eG*eA*eG*eA*e[5mC]*dA*dG*dT*dT*dT*dG*dG*d[5mC]*dA*dA*eG*e[5mC]*eT*eA*e[5mC]) [compound 547774]”, the “% inhibition” value is 46%.
On the same count and under the same terms, in the case of “547776 (antisense eG*eG*eA*eG*eA*dG*dA*dG*dA*d[5mC]*dG*dG*d[5mC]*dA*d[5mC]*e[5mC]*e[5mC]*eT*eG*eT) [compound 547776]” it was 48%; in that of “547778 (antisense eT*e[5mC]*eA*e[5mC]*e[5mC]*dT*dG*dT*dG*dA*dG*dT*dA*dA*d[5mC]*e[5mC]*eA*eA*eT*eA) [compound 547778]”, 53%; in that of “547782 (antisense e[5mC]*e[5mC]*eA*eA*eG*dT*dA*dT*d[5mC]*dT*d[5mC]*dA*dT*dG*dT*eG*e[5mC]*e[5mC]*eT*eG) [compound 547782]”, 67%.

The same data set, now with this note: human PKK mRNA, HepaRG cells, 5,000 nM antisense oligonucleotide, Table 18.
As for “548729 (DNA eG*eT*eA*e[5mC]*dT*dA*dG*dT*dT*dT*d[5mC]*d[5mC]*dT*dA*eT*eA*eA; antisense) [compound 548729]”, the “% inhibition” value stood at 13%.
Turning to “548730 (DNA eT*eG*eT*eA*d[5mC]*dT*dA*dG*dT*dT*dT*d[5mC]*d[5mC]*dT*eA*eT*eA; antisense) [compound 548730]”, the “% inhibition” value stood at 0%.
As to “548731 (DNA e[5mC]*eT*eG*eT*dA*d[5mC]*dT*dA*dG*dT*dT*dT*d[5mC]*d[5mC]*eT*eA*eT; antisense) [compound 548731]”, the “% inhibition” value turned out to be 49%.

(Values after US11840686B2, “Modulation of prekallikrein (PKK) expression” (Ionis Pharmaceuticals, Inc., priority 2013, dated 2023).)
